# “And” between values parts separate entries of the source, which are not always exact repeats. Identical values can stand only once. Like-named read-outs stand apart in the source and are kept apart here.
# What was measured:
# [1] = tested on: COH71 TNBC PDX-derived model; parameters: method as in Investigator's Brochure; details: COH71, ref Investigator's Brochure; read-out: IC50, colony formation; cited from earlier work
# [2] = tested on: MYC expression in COH70 TNBC PDX tumor; parameters: method as in Investigator's Brochure; details: ref Investigator's Brochure, cited from earlier work
# [3] = tested on: CYP2C9; parameters: method as in Investigator's Brochure; details: CYP2C9, ref Investigator's Brochure; read-out: IC50, direct inhibition; cited from earlier work
# [4] = tested on: human ether-à-go-go-related gene (hERG); parameters: method as in Investigator's Brochure; details: ref Investigator's Brochure; cited from earlier work
# [5] = tested on: TNBR3 TNBC PDX-derived model; parameters: method as in Investigator's Brochure; details: TNBR3, ref Investigator's Brochure; read-out: IC50, colony formation; cited from earlier work
# [6] = tested on: GLI1 gene expression in MIA-PaCa-2 pancreatic adenocarcinoma cells; parameters: method as in Investigator's Brochure; details: MIA-PaCa-2 cells, ref Investigator's Brochure; read-out: IC50, inhibition of GLI1 gene expression; cited from earlier work
# [7] = tested on: advanced or unresectable solid tumors; experiment: Tumor response (RECIST v1.1/RANO), PFS and OS in phase I study, parts A and C; format: in vivo, human
# Protocol: Secondary objectives were the preliminary efficacy of trotabresib in terms of clinical benefit rate (CR + PR + SD of ≥4 months’ duration), ORR (CR + PR), duration of response or SD, PFS, OS, and the PK of trotabresib. In addition, part C assessed the effects of food on the PK and the safety of trotabresib as a secondary objective. The pharmacodynamics of trotabresib were assessed as an exploratory objective.
# Response was assessed using Response Evaluation Criteria in Solid Tumors (RECIST) v1.1[54] in patients with solid tumors, International Working Group criteria in patients with DLBCL[55], and Response Assessment in Neuro-Oncology (RANO) criteria[56] in patients with CNS tumors (astrocytoma and glioblastoma). For patients with BCC, the response was assessed using a combination of radiological assessment of target lesions per RECIST v1.1, digital clinical photography assessed per World Health Organization (WHO) criteria, and punch biopsies to confirm CR. PK parameters assessed included Cmax, tmax, AUC, t½, apparent clearance (CL/F), and apparent volume of distribution (Vz/F).
# Bayesian logistic regression model based on dose-limiting toxicity was used to provide initial guidance for dose recommendations in the dose-escalation phase. The final decision was reached by considering the totality of safety, PK, and PD data. For binary efficacy endpoints, two-sided 95% Clopper–Pearson exact confidence intervals were provided. For time-to-event endpoints (PFS and OS), the median and 95% CI were estimated using the Kaplan–Meier method.
# [8] = tested on: U-2932 (ABC DLBCL); parameters: method as in Report CC-90010-Pharm-1018; details: read-out: absolute IC50, proliferation, cited from earlier work
# [9] = Biopharmaceutic and physicochemical profile
# [10] = part A (N = 69), 02 Dec 2019 cutoff
compound,measurement,setting,value
Cn1cc(-c2cc(S(C)(=O)=O)ccc2OCC2CC2)c2ccccc2c1=O [trotabresib],IC50,[1],180 ± 20 nM
same,maximal suppression of MYC expression,"[2]; COH70, 2 mg/kg, at 2 hours",51.3%
same,maximal suppression of MYC expression,"[2]; COH70, 10 mg/kg, at 4 hours",63.4%
same,IC50,[3],≥ 13.9 µM
same,IC50,[4],24.3 µM
same,IC50,[5],80 nM
same,IC50,[6],240 nM
same,patients on treatment ≥24 cycles with sustained SD,[7]; part A,five
same,"clinical benefit rate (CBR; CR, PR, or SD ≥4 months)",[7]; part A (N = 69),17.4%
same,objective response rate (ORR; CR or PR),[7]; part A (N = 69),2.9%
same,subjects with SD,[7]; [10],33.3%
same,subjects with SD ≥ 4 months,[7]; [10],14.5%
same,subjects with confirmed CR,[7]; [10],1.4%
same,subjects with confirmed PR,[7]; [10],1.4%
same,Median OS (95% CI),[7]; part A (n = 69),189 (161–258) days
same,Median PFS (95% CI),[7]; part A (n = 69),57 (52–81) days
same,OS range,[7]; part A (n = 69),15 to 853 days
same,PFS range,[7]; part A (n = 69),11 to 945 days
same,subjects with stable disease,"[7]; part A, 10 December 2018 cutoff",27.5%
same,duration of confirmed partial response,"[7]; part A, one patient with endometrial cancer",8 cycles
same,duration of complete response,"[7]; part A, one patient with grade 2 diffuse astrocytoma",19 cycles
same,total treatment duration,"[7]; part A, one patient with salivary gland cancer, ongoing at cycle 53",4.0 years
same,time on treatment,"[7]; part A, one patient with thymic cancer (38 cycles)",3.1 years
same,further patients on treatment ≥1 year with sustained SD,[7]; part C,seven
same,best response CR,[7]; part C (N = 41),0%
same,best response PD,[7]; part C (N = 41),19.5%
same,best response PR,[7]; part C (N = 41),0%
same,CBR,"[7]; part C (N = 41), treated population",31.7%
same,ORR,"[7]; part C (N = 41), treated population, confirmed responses",0.0%
same,Median OS (95% CI),[7]; part C (n = 41),508 days and 508 (239–NE) days
same,Median PFS (95% CI),[7]; part C (n = 41),114 (84–239) days
same,OS range,[7]; part C (n = 41),33 to 508 days
same,PFS range,[7]; part C (n = 41),33 to 438 days
same,reduction in tumor size (minor response),"[7]; part C, one patient with refractory high-grade astrocytoma",38%
same,treatment duration,"[7]; part C, one patient with treatment-refractory high-grade astrocytoma, ongoing",2.5 years
same,IC50,"[8]; U-2932, Experiment 1, ref Report CC-90010-Pharm-1018",150 nM
same,IC50,"[8]; U-2932, Table 2, ref Report CC-90010-Pharm-1018",167 nM
same,ionization,[9],non-ionizable
same,Biopharmaceutics Classification System (BCS) behavior,[9]; data on file,Category II like

# — article PMC10011554, “BET inhibitor trotabresib in heavily pretreated patients with solid tumors and diffuse large B-cell lymphomas” (Nature Communications, 2023)
